From US20140081017A1, “Histone Deacetylase Inhibitors for Enhancing Activity of Antifungal Agents” (METHYLGENE INC., priority 2012, published 2014)
Converted amounts (≈) assume the structure as drawn. Read-outs that look alike come from different tables or passages of the source.

Tests used:
Candida albicans = experiment: Minimal Inhibitory Concentration (MIC) assay, broth microdilution per CLSI; assay type: cell-based; details: for MIC: Candida albicans, read-out: Minimum Inhibitory Concentrations against Yeast Isolates, Candida albicans;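 for all read-outs here: two read times 24 hr and 48 hr of incubation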
Method: (§1) The in vitro activities of the inventive compounds (compound(s) herein) against fungi and/or yeasts were determined with isolates Candida albicans, Candida glabrata and Candida parapsilosis. The comparator compounds included fluconazole, caspofungin and amphotericin B.
(§2) The compounds were supplied as a powder, and were dissolved in dimethylsulfoxide (DMSO) the day of assay. Stock solutions were prepared at 10 mg/mL and diluted to a starting stock concentration of 2.56 mg/mL. Amphotericin B was dissolved in DMSO to a stock concentration of 2.56 mg/mL. Fluconazole was dissolved in deionized water to a stock concentration of 2.56 mg/mL. Caspofungin was received as a stock solution of 3.2 mg/mL in DMSO and was diluted to a starting stock concentration of 2.56 mg/mL.
(§3) The test organisms and reference isolates were streaked for isolation on Sabouraud agar medium (yeasts) or potato dextrose agar (fungi). Colonies were picked by swab from the medium and resuspended in the appropriate broth containing cryoprotectant. The suspensions were aliquoted into cryogenic vials and maintained at −80° C.
(§4) Prior to testing, the yeast isolates were streaked from the frozen vials onto Sabouraud dextrose agar. The plates were incubated overnight at 35° C. The fungal isolate was grown on potato dextrose agar slants and was incubated for 7-10 days at room temperature.
(§5) Both yeast and fungal isolates were tested in RPMI medium buffered with 0.165 M MOPS (3-(N-morpholino)propanesulfonic acid). The pH of the medium was adjusted to 7.0 with 1 N NaOH. The medium was sterile filtered using a 0.2 um PES (polyethersulfone) filter and stored at 4° C. until used.
(§6) The MIC assay method followed the procedure described by the Clinical and Laboratory Standards Institute (CLSI; 1, 2, 3) and employed automated liquid handlers to conduct serial dilutions and liquid transfers. Automated liquid handlers included the Multidrop 384 (Labsystems, Helsinki, Finland), Biomek 2000 and Biomek FX (Beckman Coulter, Fullerton Calif.). The wells in columns 2-12 in standard 96-well microdilution plates (Costar 3795) were filled with 150 ul of 100% DMSO. These would become the ‘mother plates’ from which ‘daughter’ or test plates would be prepared. The compounds (300 uL at 40× the desired top concentration in the test plates) were dispensed into the appropriate well in Column 1 of the mother plates. The Biomek 2000 was used to make serial 1:1 dilutions through Column 11 in the “mother plate”. The wells of Column 12 contained no compounds and were the organism growth control wells.
(§7) The daughter plates were loaded with 185 uL per well of RPMI described above using the Multidrop 384. The daughter plates were prepared using the Biomek FX which transferred 5 μL of the compound solution from each well of a mother plate to the corresponding well of the daughter plate in a single step.
(§8) Standardized inoculum of each organism was prepared per CLSI methods. For yeast isolates, colonies were picked from the streak plate and a suspension was prepared in 0.85% saline. For the fungal isolate, 1 mL of 0.85% saline was dispensed onto the potato dextrose agar slant that had been inoculated 7-10 days previously. Using a swab, a suspension of the fungus was made. After a short time to allow the heavy particles to settle out, a small quantity of the supernatant was dispensed into 0.85% saline and the suspension adjusted to equal a 0.5 McFarland turbidity standard. Both yeast and fungal isolates were diluted 1:100 in RPMI and then transferred to compartments of sterile reservoirs divided by length (Beckman Coulter). The Biomek 2000 was used to inoculate the plates. Daughter plates were placed on the Biomek 2000 work surface reversed so that inoculation took place from low to high compound concentration. The Biomek 2000 delivered 10 μL of standardized inoculum into each well. Thus, the wells of the daughter plates ultimately contained 185 uL of RPMI, 5 uL of the compound solution, and 10 uL of inoculum. […]

Candida glabrata = experiment: as above; assay type: cell-based; details: for MIC: Nakaseomyces glabratus, read-out: Minimum Inhibitory Concentrations against Yeast Isolates, Candida glabrata;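 for all read-outs here: two read times 24 hr and 48 hr of incubation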
Method: as §1, §2, §3, §4, §5, §6, §7, §8

Candida parapsilosis = experiment: as above; assay type: cell-based; details: for MIC: Lodderomyces parapsilosis, read-out: Minimum Inhibitory Concentrations against Yeast Isolates, Candida parapsilosis;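 for all read-outs here: two read times 24 hr and 48 hr of incubation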
Method: as §1, §2, §3, §4, §5, §6, §7, §8

C. glabrata = experiment: Checkerboard FIC assay in combination with fluconazole (MIC alone and in combination, FICI); assay type: cell-based, Candida glabrata; details: for FICI of combination resulting in fluconazole MIC of: 2 ug/mL / FICI of combination resulting in fluconazole MIC of: 4 ug/mL / FICI of combination resulting in fluconazole MIC of: 8 ug/mL: FICI calculated using a fluconazole MIC of 16 μg/mL; for FICI of combination resulting in fluconazole MIC of: 2 ug/mL (value in parenthesis) / FICI of combination resulting in fluconazole MIC of: 4 ug/mL (value in parenthesis) / FICI of combination resulting in fluconazole MIC of: 8 ug/mL (value in parenthesis): FICI using a fluconazole MIC of 128 μg/mL; for MIC: Nakaseomyces glabratus; for Multiple of compound MIC to synergize fluconazole MIC to 2 ug/mL / Multiple of compound MIC to synergize fluconazole MIC to 4 ug/mL / Multiple of compound MIC to synergize fluconazole MIC to 8 ug/mL: concentration in combination as multiple of the compound's MIC alone; for Multiple of compound MIC to synergize fluconazole MIC to 2 ug/mL: fluconazole MIC 2 ug/mL; for Multiple of compound MIC to synergize fluconazole MIC to 4 ug/mL: fluconazole MIC 4 ug/mL; for Multiple of compound MIC to synergize fluconazole MIC to 8 ug/mL: fluconazole MIC 8 ug/mL; for Concentration of Methylgene compound to synergize fluconazole MIC to 2 ug/mL / Concentration of Methylgene compound to synergize fluconazole MIC to 4 ug/mL / Concentration of Methylgene compound to synergize fluconazole MIC to 8 ug/mL: in combination with fluconazole; for Concentration of Methylgene compound to synergize fluconazole MIC to 2 ug/mL: fluconazole MIC lowered to 2 ug/mL; for Concentration of Methylgene compound to synergize fluconazole MIC to 4 ug/mL: fluconazole MIC lowered to 4 ug/mL; for Concentration of Methylgene compound to synergize fluconazole MIC to 8 ug/mL: fluconazole MIC lowered to 8 ug/mL
Method: The ability of the compounds to synergize with azoles against C. glabrata was evaluated by the checkerboard assay, a common laboratory method used to evaluate synergy, antagonism, and indifference using fractional inhibitory concentrations (FICs) and FIC indices (FICI).
The test compounds were supplied as a powder and dissolved in dimethylsulfoxide (DMSO) on the day of assay. Stock solutions were prepared at 640 ug/mL. Fluconazole was dissolved in deionized water to a stock concentration of 320 ug/mL. All test articles were in solution under these conditions.
as §3, §4, §5
FIC values were determined using a broth microdilution method (CLSI; 1, 3). To prepare the test plates, automated liquid handlers (Multidrop 384, Labsystems, Helsinki, Finland; Biomek 2000 and Biomek FX, Beckman Coulter, Fullerton Calif.) were used to conduct serial dilutions and liquid transfers.
The wells of standard 96-well microdilution plates (Costar 3795) were filled with 150 uL of DMSO in columns 2-12. Three hundred microliters of each test compound was added to each well in Column 1 of the plates. The Biomek 2000 was used to make eleven 2-fold serial dilutions in each of these “test compound mother” plates. The wells of the “fluconazole mother plates” were filled with 150 uL of sterile water in rows B-H. Row A of these plates was filled with 300 uL of the fluconazole stock solution. Serial 2-fold dilutions were then prepared from top to bottom by hand, using a multichannel pipette in rows B-G. The “daughter plates” were loaded with 180 uL of RPMI using the Multidrop 384. The Biomek FX was used to transfer 5 uL of compound solution from each well of a fluconazole mother plate to the corresponding well in all of the daughter plates in a single step. Then the Biomek FX was used to transfer 5 uL of compound solution from each well of a test compound mother plate to the corresponding well of the corresponding test compound daughter plate (already containing fluconazole at the appropriate concentrations) in a single step. Row H and Column 12 each contained serial dilutions of the test agent and fluconazole alone, respectively, for determination of the MIC.
Standardized inoculum of each organism was prepared per CLSI methods (CLSI; 1, 3). For yeast isolates, colonies were picked from the primary plate and a suspension was prepared in 0.85% saline to equal a 0.5 McFarland turbidity standard. For the fungal isolate, 1 mL of 0.85% saline was dispensed onto a potato dextrose agar slant onto which the isolate had been inoculated 7-10 days previously. Using a swab, a suspension of the fungus was made. After a short time to allow the heavy particles to settle out, a small quantity of the supernatant was dispensed into 0.85% saline and the suspension was adjusted to equal a 0.5 McFarland turbidity standard. Both yeast and fungal isolates were diluted 1:100 in RPMI and then transferred to compartments of sterile reservoirs divided by length (Beckman Coulter). The Biomek 2000 was used to inoculate the plates. […]

[1] = 24 hr reading (first value of cell 24 hr/48 hr)
[2] = 48 hr reading (second value of cell 24 hr/48 hr)
[3] = MIC of the example compound alone against C. glabrata in the checkerboard assay, approximately 48 hr, read-out: Methylgene MIC
[4] = test compound alone, C. glabrata, approx. 48 hr at 35° C., read-out: Compound MIC

| MIC (Candida albicans; [1]) [µg/mL] | MIC (Candida albicans; [2]) [µg/mL] | MIC (Candida glabrata; [1]) [µg/mL] | MIC (Candida glabrata; [2]) [µg/mL] | MIC (Candida parapsilosis; [1]) [µg/mL] | MIC (Candida parapsilosis; [2]) [µg/mL] | FICI of combination resulting in fluconazole MIC of: 2 ug/mL (C. glabrata; C. glabrata) | FICI of combination resulting in fluconazole MIC of: 4 ug/mL (C. glabrata; C. glabrata) | FICI of combination resulting in fluconazole MIC of: 8 ug/mL (C. glabrata; C. glabrata) | FICI of combination resulting in fluconazole MIC of: 2 ug/mL (value in parenthesis) (C. glabrata; C. glabrata) | FICI of combination resulting in fluconazole MIC of: 4 ug/mL (value in parenthesis) (C. glabrata; C. glabrata) | FICI of combination resulting in fluconazole MIC of: 8 ug/mL (value in parenthesis) (C. glabrata; C. glabrata) | MIC (C. glabrata; [3]) [µg/mL] | MIC (C. glabrata; [4]) [µg/mL] | Multiple of compound MIC to synergize fluconazole MIC to 2 ug/mL (C. glabrata) | Multiple of compound MIC to synergize fluconazole MIC to 4 ug/mL (C. glabrata) | Multiple of compound MIC to synergize fluconazole MIC to 8 ug/mL (C. glabrata) | Concentration of Methylgene compound to synergize fluconazole MIC to 2 ug/mL (C. glabrata; C. glabrata) [µg/mL] | Concentration of Methylgene compound to synergize fluconazole MIC to 4 ug/mL (C. glabrata; C. glabrata) [µg/mL] | Concentration of Methylgene compound to synergize fluconazole MIC to 8 ug/mL (C. glabrata; C. glabrata) [µg/mL] | SMILES | other results |
| --- | --- | --- | --- | --- | --- | --- | --- | --- | --- | --- | --- | --- | --- | --- | --- | --- | --- | --- | --- | --- | --- |
| – | – | – | – | – | – | – | – | – | – | – | – | – | – | – | – | – | – | – | – | C[C@@H]1[C@H](O)[C@@H](C)/C=C/C=C/C=C/C=C/C=C/C=C/C=C/[C@H](O[C@@H]2O[C@H](C)[C@@H](O)[C@H](N)[C@@H]2O)C[C@@H]2O[C@](O)(C[C@@H](O)C[C@@H](O)[C@H](O)CC[C@@H](O)C[C@@H](O)CC(=O)O[C@H]1C)C[C@H](O)[C@H]2C(=O)O [Amphotericin B, reference compound] | Minimum Inhibitory Concentrations against Yeast Isolates, Candida albicans (Candida albicans; [1]): < 0.06 µg/mL; Minimum Inhibitory Concentrations against Yeast Isolates, Candida albicans (Candida albicans; [2]): 0.25 µg/mL; Minimum Inhibitory Concentrations against Yeast Isolates, Candida glabrata (Candida glabrata; [1]): < 0.06 µg/mL; Minimum Inhibitory Concentrations against Yeast Isolates, Candida glabrata (Candida glabrata; [2]): 0.5 µg/mL; Minimum Inhibitory Concentrations against Yeast Isolates, Candida parapsilosis (Candida parapsilosis; [1]): 0.25 µg/mL; Minimum Inhibitory Concentrations against Yeast Isolates, Candida parapsilosis (Candida parapsilosis; [2]): 0.5 µg/mL |
| 32 (≈ 110 µM) | 32 (≈ 110 µM) | > 64 | > 64 | 32 (≈ 110 µM) | 32 (≈ 110 µM) | 0.625 | 0.500 | 0.625 | 0.516 | 0.281 | 0.188 | 8 | 8 | (½x) | (¼x) | (⅛x) | 4 | 2 | 1 | O=C(Cc1csc(CCCCc2ccccc2)n1)NO [Example 1, N-hydroxy-2-(2-(4-phenylbutyl)thiazol-4-yl)acetamide] | – |
| 64 (≈ 220 µM) | 64 (≈ 220 µM) | > 64 | > 64 | 64 (≈ 220 µM) | 64 (≈ 220 µM) | 0.375 | 0.500 | 0.625 | 0.266 | 0.281 | 0.188 | 16 | 16 | (¼x) | (¼x) | (⅛x) | 4 | 4 | 2 | O=C(Cc1cnc(CCCCc2ccccc2)s1)NO [Example 2, N-hydroxy-2-(2-(4-phenylbutyl)thiazol-5-yl)acetamide] | – |
| > 64 | > 64 | > 64 | > 64 | > 64 | > 64 | – | – | – | – | – | – | – | – | – | – | – | – | – | – | CN(C)CCCOc1ccc(CCCCc2ccc(CC(=O)NO)cc2)cc1 [Example 17, 2-(4-(4-(4-(3-(dimethylamino)propoxy)phenyl)butyl)phe-nyl)-N-hydroxyacetamide] | – |
| > 64 | > 64 | > 64 | > 64 | > 64 | > 64 | – | – | – | – | – | – | – | – | – | – | – | – | – | – | O=C(Cc1ccc(CCCCc2ccc(OCCN3CCCC3)cc2)cc1)NO [Example 18, N-hydroxy-2-(4-(4-(4-(2-(pyrrolidin-1-yl)ethoxy)phenyl)butyl)phenyl)acetamide] | – |
| 32 (≈ 117 µM) | 32 (≈ 117 µM) | 32 (≈ 117 µM) | 32 (≈ 117 µM) | 32 (≈ 117 µM) | 32 (≈ 117 µM) | – | – | – | – | – | – | – | – | – | – | – | – | – | – | O=C(Cc1ccc(CCCCc2ccccc2)o1)NO [Example 62, N-hydroxy-2-(5-(4-phenylbutyl)furan-2-yl)acetamide] | – |
